Consider 14 compounds from ChEMBL document CHEMBL4422610, “HDAC as onco target: Reviewing the synthetic approaches with SAR study of their inhibitors” (Eur J Med Chem, 2018).

Structures are written as SMILES.

In the first experiment the target is T1, Histone deacetylase 1 (Homo sapiens, UniProt Q13547). Briefly: Inhibition of HDAC1 (unknown origin) using Ac-peptide as substrate preincubated for 15 mins followed by substrate addition and measured after 60 mins by fluorescence assay.
T1 sequence (Q13547 whole entry): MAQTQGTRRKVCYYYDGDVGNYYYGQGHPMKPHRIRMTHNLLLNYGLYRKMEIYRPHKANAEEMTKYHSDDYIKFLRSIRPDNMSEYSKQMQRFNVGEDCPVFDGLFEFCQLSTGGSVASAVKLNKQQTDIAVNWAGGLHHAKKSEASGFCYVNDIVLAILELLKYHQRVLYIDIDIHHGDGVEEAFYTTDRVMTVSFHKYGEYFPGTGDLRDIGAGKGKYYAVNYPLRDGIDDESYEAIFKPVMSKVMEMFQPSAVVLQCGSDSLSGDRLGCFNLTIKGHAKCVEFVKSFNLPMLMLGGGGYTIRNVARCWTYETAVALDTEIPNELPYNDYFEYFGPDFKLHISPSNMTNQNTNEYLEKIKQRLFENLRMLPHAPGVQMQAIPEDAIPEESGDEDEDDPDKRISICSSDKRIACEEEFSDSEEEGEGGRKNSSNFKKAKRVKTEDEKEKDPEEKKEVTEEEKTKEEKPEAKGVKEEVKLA
Usually IC50 stands for the concentration needed to halve the response being measured. `COc1ccccc1N1C(=O)CSC1c1cccc(NC(=O)CCC(=O)NO)c1` (centres undefined) yielded an IC50 of 350 nM.

The compound `O=C(CCCCCCCOc1ccccc1N1C(=O)CSC1c1cccc(Br)c1)NO` (centres undefined) had an IC50 of 29 nM.

`COc1ccccc1N1C(=O)CSC1c1cccc(NC(=O)CCCCCC(=O)NO)c1` (centres undefined) returned a concentration for half-maximal inhibition (IC50) of 17 nM.

`O=C(CCCOc1ccccc1N1C(=O)CSC1c1cccc(Br)c1)NO` (centres undefined) had an IC50 of 1860 nM.

`O=C(CCCCCCC(=O)Nc1ccccc1N1C(=O)CSC1c1cccc(Br)c1)NO` (centres undefined) returned an IC50 of 52 nM.

On to `O=C(CCCCCOc1ccccc1N1C(=O)CSC1c1cccc(Br)c1)NO` (centres undefined), for which inhibition was half-maximal at 260 nM (IC50).

The compound `O=C(CCCCCCOc1ccccc1N1C(=O)CSC1c1cccc(Br)c1)NO` (centres undefined) returned a half-inhibitory concentration (IC50) of 50 nM.

For the compound `O=C(CCCCCC(=O)Nc1ccccc1N1C(=O)CSC1c1cccc(Br)c1)NO` (centres undefined), the half-maximal inhibitory concentration (IC50) was determined as 29 nM.

In the case of `COc1ccccc1N1C(=O)CSC1c1cccc(C(=O)NCCCCCC(=O)NO)c1` (centres undefined), inhibition was half-maximal at 37 nM (IC50).

The compound `COc1ccccc1N1C(=O)CSC1c1cccc(C(=O)NCCCC(=O)NO)c1` (centres undefined) returned an IC50 of 4930 nM.

`O=C(CCCOc1ccccc1N1C(=O)CSC1c1ccc(Br)s1)NO` (centres undefined) had an IC50 of 73 nM.

For the compound `O=C(CCCCOc1ccccc1N1C(=O)CSC1c1cccc(Br)c1)NO` (centres undefined), the IC50 was 530 nM.

For another experiment, the target named is T1, Histone deacetylase 1. In words: Inhibition of GST-tagged HDAC1 (unknown origin) expressed in insect cells using poly (Glu, Tyr) 4:1 as substrate measured after 15 mins in presence of [gamma-33P]ATP by Topcount method.
Consider `O=C(/C=C/c1ccc(C2CCCN2CCc2cnn3ccccc23)cc1)NO` (centres undefined), for which the IC50 came out at 0.9 nM.

Take `Cc1[nH]c2ccccc2c1C1CCCN(Cc2ccc(/C=C/C(=O)NO)cc2)C1` (centres undefined): the 50% inhibitory concentration (IC50) stood at 6 nM.
